The record followed here is US20200131144A1, “AMINE OR (THIO)AMIDE CONTAINING LXR MODULATORS” (Phenex-FXR GmbH, priority 2017, published 2020).

The target of one assay is T1, LXRβ full length (FL) (Homo sapiens, UniProt P55055, INS174Q).
T1 construct: the full length (FL) proteins of LXRα (amino acids 1-447); NP005684; NP009052; expressed in transfected cells; host or cells: HEK293
T1 sequence (P55055 with tags, fused parts or gaps INS174Q): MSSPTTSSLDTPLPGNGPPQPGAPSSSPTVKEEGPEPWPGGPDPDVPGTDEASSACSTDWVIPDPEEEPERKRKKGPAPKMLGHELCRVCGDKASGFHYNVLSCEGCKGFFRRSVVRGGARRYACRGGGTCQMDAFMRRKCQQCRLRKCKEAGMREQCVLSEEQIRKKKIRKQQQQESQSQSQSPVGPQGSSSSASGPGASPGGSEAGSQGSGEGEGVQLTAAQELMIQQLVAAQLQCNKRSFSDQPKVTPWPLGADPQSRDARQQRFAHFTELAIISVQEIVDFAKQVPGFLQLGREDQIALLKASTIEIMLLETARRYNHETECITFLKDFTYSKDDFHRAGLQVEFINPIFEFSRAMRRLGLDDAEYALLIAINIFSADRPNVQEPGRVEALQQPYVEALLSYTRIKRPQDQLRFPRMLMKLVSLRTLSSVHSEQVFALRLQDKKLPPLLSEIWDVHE
Description: LXR Gal4 reporter transient transfection assay, mammalian two-hybrid, FL-M2H Gal4β. To be noted: HEK293 cells; inverse agonist unless *. Format: cell-based. How it is done:
(§1) The tested compounds were usually dissolved, tested and stored as 20 mM stock solutions in DMSO. Since sulfonyl acetic acid derivatives tend to decarboxylate under these conditions, these stock solutions were prepared, tested and stored as 20 mM DMSO stock solutions containing 100 mM trifluoroacetic acid (5 equivalents). Sulfonyl acetic acid derivatives are shelf stable as solid at rt for long time as reported by Griesbrecht et al. (Synlett 2010:374) or Faucher et al. (J. Med. Chem. 2004; 47:18).
(§2) LXR Gal4 Reporter Transient Transfection Assays
(§3) LXRα and LXRβ activity status was determined via detection of interaction with coactivator and corepressor proteins in mammalian two-hybrid experiments (M2H). For this, via transient transfection the full length (FL) proteins of LXRα (amino acids 1-447; NP005684; SEQ ID NO:1) or LXRβ-(amino acids 1-461; NP009052; SEQ ID NO:2) or the ligand-binding domains (LBD) of LXRα (amino acids 155-447 SEQ ID NO:3) or LXR (amino acids 156-461; SEQ ID NO:4) were expressed from pCMV-AD (Stratagene) as fusions to the transcriptional activation domain of NFkB. As cofactors, domains of either the steroid receptor coactivator 1 (SRC1; amino acids 552-887; SEQ ID NO:5) or of the corepressor NCoR (amino acids 1906-2312; NP006302; SEQ ID NO:6) were expressed as fusions to the DNA binding domain of the yeast transcription factor GAL4 (from pCMV-BD; Stratagene). Interaction was monitored via activation of a coexpressed Firefly Luciferase Reporter gene under control of a promoter containing repetitive GAL4 response elements (vector pFRLuc; Stratagene). Transfection efficiency was controlled via cotransfection of constitutively active pRL-CMV Renilla reniformis luciferase reporter (Promega). HEK293 cells were grown in minimum essential medium (MEM) with 2 mM L-glutamine and Earle's balanced salt solution supplemented with 8.3% fetal bovine serum, 0.1 mM non-essential amino acids, 1 mM sodium pyruvate, at 37° C. in 5% CO2. 3.5×10^4 cells/well were plated in 96-well cell culture plates in growth medium supplemented with 8.3% fetal bovine serum for 16-20 h to—90% confluency. For transfection, medium was taken off and LXR and cofactor expressing plasmids as well as the reporter plasmids are added in 30 μL OPTIMEM/well including polyethylene-imine (PEI) as vehicle. Typical amounts of plasmids transfected/well: pCMV-AD-LXR (5 ng), pCMV-BD-cofactor (5 ng), pFR-Luc (100 ng), pRL-CMV (0.5 ng). Compound stocks were prepared in DMSO, prediluted in MEM to a total volume of 120 μL, and added 4 h after addition of the transfection mixture (final vehicle concentration not exceeding 0.2%). Cells were incubated for additional 16 h, lysed for 10 min in 1×Passive Lysis Buffer (Promega) and Firefly and Renilla luciferase activities were measured sequentially in the same cell extract using buffers containing D-luciferine and coelenterazine, respectively. Measurements of luminescence were done in a BMG-luminometer.

Assay [1] has as its target T2, GST-LXRβ ligand-binding domain (Homo sapiens, UniProt P55055, INS174Q).
T2 construct: amino acids 156-461; NP009052; made in house; host or cells: E. coli
T2 sequence (P55055 with tags, fused parts or gaps INS174Q limits assumed): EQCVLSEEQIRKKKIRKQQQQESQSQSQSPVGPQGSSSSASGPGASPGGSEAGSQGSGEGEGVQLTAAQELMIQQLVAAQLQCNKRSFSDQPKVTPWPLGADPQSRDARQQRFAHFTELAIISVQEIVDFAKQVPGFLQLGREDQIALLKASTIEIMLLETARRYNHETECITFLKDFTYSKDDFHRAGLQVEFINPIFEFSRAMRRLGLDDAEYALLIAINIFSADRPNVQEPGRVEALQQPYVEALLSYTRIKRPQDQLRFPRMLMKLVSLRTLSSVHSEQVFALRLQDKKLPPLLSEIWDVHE
The assay can be described thus: TR-FRETβ activity assay (NCoA3 coactivator peptide recruitment). Format: biochemical. The settings on record: 1 μM 24(S)-25-epoxycholesterol as prestimulating agonist; inverse agonist unless *. How it is done:
The tested compounds were usually dissolved, tested and stored as 20 mM stock solutions in DMSO. […] Sulfonyl acetic acid derivatives are shelf stable as solid at rt for long time as reported by Griesbrecht et al. (Synlett 2010:374) or Faucher et al. (J. Med. Chem. 2004; 47:18). TR-FRETβ Activity Assay Recombinant GST-LXRβ ligand-binding domain (LBD; amino acids 156-461; NP009052; SEQ ID NO:4) was expressed in E. coli and purified via gluthatione-sepharose affinity chromatography. N-terminally biotinylated NCoA3 coactivator peptide (SEQ ID NO:7) was chemically synthesized (Eurogentec). […] Finally, a detection mix was added containing anti GST-Tb cryptate (CisBio; 610SAXLB) and Streptavidin-XL665 (CisBio; 610SAXLB) as fluorescent donor and acceptor, respectively, as well as the coactivator peptide and LXRβ-LBD protein (SEQ ID NO:4). The reaction was mixed thoroughly, equilibrated for 1 h at 4° C. and vicinity of LXRβ and coactivator peptide was detected by measurement of fluorescence in a VictorX4 multiplate reader (PerkinElmer Life Science) using 340 nm as excitation and 615 and 665 nm as emission wavelengths. Assays were performed in triplicates. Final Assay Concentrations of Components: 240 mM KCl, 1 μg/μL BSA, 0.002% Triton-X-100, 125 pg/μL anti GST-Tb cryptate, 2.5 ng/μL Streptavidin-XL665, coactivator peptide (400 nM), LXRP protein ([…], i.e. 76 nM).

For the next assay, the target named is T3, LXRα full length (FL) (Homo sapiens, UniProt Q13133).
T3 construct: the full length (FL) proteins of LXRα (amino acids 1-447); NP005684; expressed in transfected cells; host or cells: HEK293
T3 sequence (Q13133 1-447): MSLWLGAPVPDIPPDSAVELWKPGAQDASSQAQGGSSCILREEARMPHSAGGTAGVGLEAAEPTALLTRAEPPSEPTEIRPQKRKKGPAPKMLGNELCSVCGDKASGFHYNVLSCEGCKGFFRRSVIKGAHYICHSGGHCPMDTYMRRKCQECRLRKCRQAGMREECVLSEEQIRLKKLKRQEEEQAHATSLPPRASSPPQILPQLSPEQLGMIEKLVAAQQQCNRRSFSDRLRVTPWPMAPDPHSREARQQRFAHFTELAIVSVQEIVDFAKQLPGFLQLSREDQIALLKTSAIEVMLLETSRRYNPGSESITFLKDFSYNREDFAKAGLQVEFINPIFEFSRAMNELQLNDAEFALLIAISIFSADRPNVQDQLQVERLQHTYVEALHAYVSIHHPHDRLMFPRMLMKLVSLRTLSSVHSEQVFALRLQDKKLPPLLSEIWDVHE
The assay can be described thus: LXR Gal4 reporter transient transfection assay, mammalian two-hybrid, FL-M2H Gal4α. Format: cell-based. The settings on record: HEK293 cells; inverse agonist unless *. As for the experimental part:
as §1, §2, §3

What is called EC50 is the concentration giving half of the maximal effect. `O=C(O)CS(=O)(=O)c1cccc(-c2ccc(CN(Cc3ccccc3)Cc3ccc(C(F)(F)F)o3)cc2)c1` [7/11] had a 50% effective concentration (EC50) on LXRβ full length (FL) of 1000 to 10000 nM. Turning to `COc1cc(-c2cccc(S(=O)(=O)CC(=O)O)c2)ccc1CN(Cc1ccc(C(F)(F)F)o1)Cc1c(C)cc(C)cc1C` [15/2], the figures for the EC50 (on LXRβ full length (FL); in assay [1]) were 1000 to 10000 nM and 1 to 10 µM, respectively.

Take `Cc1cc(C)c(CN(Cc2ccc(-c3ccc(CO)c(S(=O)(=O)CC(=O)O)c3)cc2)Cc2ccc(C(F)(F)F)o2)c(C)c1` [Example 12, 2-((4-(Hydroxvmethyl)-4′-((((5-(trifluoromethyl)furan-2-yl)methyl)(2,4,6-trimethyl-benzyl)amino)methyl)-[1,1′-biphenyl]-3-yl)sulfonyl)acetic acid]: the EC50 in assay [1] was 1 to 10 µM.

For `O=C(O)CS(=O)(=O)c1cccc(-c2ccc(CN(Cc3ccc(C(F)(F)F)o3)C3CCc4cccc5cccc3c45)cc2)c1` (centres unmarked) [27/40], the EC50 at LXRβ full length (FL) was 1000 to 10000 nM; in assay [1], more than 10 µM. As for `CC1CCc2ccccc2N1C(=O)N(Cc1ccc(-c2cccc(C(C)(C)C(=O)O)c2)cc1)Cc1ccc(C(F)(F)F)o1` (centres unmarked) [27/96], the EC50 at LXRα full length (FL) and on LXRβ full length (FL) was less than 100 nM throughout.

Consider `Cc1nc(C)c(CN(Cc2ccc(-c3cc(F)c(CO)c(S(=O)(=O)CC(=O)O)c3)cc2)Cc2ccc(C(F)(F)F)o2)c(C)n1` [22/6], for which the EC50 lay within 1000 to 10000 nM on LXRβ full length (FL) and 1 to 10 µM in assay [1]. Molecule `Cc1ccc2ccccc2c1C(=O)N(Cc1ccc(-c2cccc(S(=O)(=O)CC(=O)O)c2)cc1)Cc1ccc(C(N)=O)o1` [Example 16, 2-((4′-((N-((5-Carbamoylfuran-2-yl)methyl)-2-methyl-1-naphthamido)methyl)-[1,1′-biphenyl]-3-yl)sulfonyl)acetic acid] yielded an EC50 on LXRβ full length (FL) of 1000 to 10000 nM. In turn, `Cc1cc(C)c(CN(Cc2ccc(-c3cccc(S(=O)(=O)CC(=O)NS(=O)(=O)N(C)C)c3)cc2)Cc2ccc(C(F)(F)F)o2)c(C)c1` [Example 2/1] returned an EC50 in assay [1] of more than 10 µM.

In the case of `Cc1ccc2ccccc2c1C(=O)N(Cc1ccc(C(F)(F)F)o1)Cc1ccc(-c2cncc(C(C)(C)C(=O)O)c2)cc1C(F)F` [27/63], the EC50 in assay [1] is 0.1 to 1 µM. On to `Cc1cc(C)c(CCN(Cc2ccc(-c3cccc(S(=O)(=O)CC(=O)O)c3)cc2)Cc2ccc(C(F)(F)F)o2)c(C)c1` [7/8], for which the EC50 at LXRβ full length (FL) is 1000 to 10000 nM; in assay [1] it was more than 10 µM. Turning to `Cc1cc(C)c(CN(Cc2ccc(C(F)(F)F)o2)Cc2sc(-c3cccc(S(=O)(=O)CC(=O)O)c3)cc2Cl)c(C)c1` [15/4], the EC50 on LXRβ full length (FL) was 100 to 1000 nM; in assay [1] it was more than 10 µM. As to `Cc1cc(C)c(CN(Cc2ccc(-c3cc(F)c(CF)c(S(=O)(=O)CC(=O)O)c3)cc2)Cc2ccc(C(F)(F)F)o2)c(C)c1` [Example 20, 2-((5-Fluoro-4-(fluoromethyl)-4′-((((5-(trifluoromethyl)furan-2-yl)methyl)(2,4,6-trimethyl-benzyl)amino)methyl)-[1,1′-biphenyl]-3-yl)sulfonyl)acetic acid], the EC50 lay within 100 to 1000 nM at LXRβ full length (FL) and 1 to 10 µM in assay [1]. The molecule `Cc1cc(C)c(CC(=O)N(Cc2ccc(-c3cccc(S(=O)(=O)CC(=O)O)c3)cc2)Cc2ccc(C(F)(F)F)o2)c(C)c1` [Example 9/1] gave an EC50 at LXRβ full length (FL) of 1000 to 10000 nM.

On to `Cc1ccc2ccccc2c1C(=O)N(Cc1ccc(-c2cccc(C(C)(C)C(=O)O)c2)cc1)Cc1ccc(C(=O)O)o1` [27/29], for which the EC50 at LXRα full length (FL) and on LXRβ full length (FL) was 1000 to 10000 nM in each case. With `CC(C)(C(=O)O)c1cccc(-c2ccc(CN(Cc3ccc(C(F)(F)F)o3)C(CF)c3cccc4ccccc34)cc2)c1` (centres unmarked) [Example 18, 2-(4′-(((2-Fluoro-1-(naphthalen-1-yl)ethyl)((5-(trifluoromethyl)furan-2-yl)methyl)amino)methyl)-[1,1′-biphenyl]-3-yl)-2-methylpropanoic acid], on LXRβ full length (FL), the EC50 was in the range of 100 to 1000 nM. For `Cc1cc(C)c(CN(Cc2ccc(-c3cccc(S(=O)(=O)CC(=O)O)c3)cc2)C(=O)c2ccc(C(F)(F)F)o2)c(C)c1` [27/57], the EC50 in assay [1] was more than 10 µM.

For `COc1ccc2nc(C)c(C)c(C(=O)N(Cc3ccc(-c4cccc(C(C)(C)C(=O)O)c4)cc3)Cc3ccc(C(F)(F)F)o3)c2n1` [27/134], the EC50 on LXRα full length (FL) and at LXRβ full length (FL) was less than 100 nM throughout.

On to `COc1cc(-c2cc(F)c(CO)c(S(=O)(=O)CC(=O)O)c2)cnc1CN(Cc1ccc(C(F)(F)F)o1)Cc1c(C)ccc2ccccc12` [22/3], for which the EC50 on LXRα full length (FL) was 1000 to 10000 nM; on LXRβ full length (FL) it was 100 to 1000 nM. Molecule `Cc1ccc2ccccc2c1CN(Cc1ccc(C(F)(F)F)o1)Cc1ccc(-c2cccc(S(=O)(=O)CC(=O)O)c2)c2nccn12` [Example 27, 2-((3-(5-((((2-Methylnaphthalen-1-yl)methyl)((5-(trifluoromethyl)furan-2-yl)methyl)amino)methyl)imidazo[1,2-a]pyridin-8-yl)phenyl)sulfonyl)acetic acid] returned an EC50 in assay [1] of more than 10 µM.
